Experimental findings from patent US20230139171A1 (SITA Information Networking Computing UK Limited, priority 2019, published 2023) are described below.

Usually IC50 stands for the concentration at which inhibition is half-maximal.

What all share (assay type): cell-based
For assay [1], the target named is T1, human TLR8 (Homo sapiens, UniProt Q9NR97).
T1 construct: host or cells: HEK-Blue cells
T1 sequence (Q9NR97 27-1041): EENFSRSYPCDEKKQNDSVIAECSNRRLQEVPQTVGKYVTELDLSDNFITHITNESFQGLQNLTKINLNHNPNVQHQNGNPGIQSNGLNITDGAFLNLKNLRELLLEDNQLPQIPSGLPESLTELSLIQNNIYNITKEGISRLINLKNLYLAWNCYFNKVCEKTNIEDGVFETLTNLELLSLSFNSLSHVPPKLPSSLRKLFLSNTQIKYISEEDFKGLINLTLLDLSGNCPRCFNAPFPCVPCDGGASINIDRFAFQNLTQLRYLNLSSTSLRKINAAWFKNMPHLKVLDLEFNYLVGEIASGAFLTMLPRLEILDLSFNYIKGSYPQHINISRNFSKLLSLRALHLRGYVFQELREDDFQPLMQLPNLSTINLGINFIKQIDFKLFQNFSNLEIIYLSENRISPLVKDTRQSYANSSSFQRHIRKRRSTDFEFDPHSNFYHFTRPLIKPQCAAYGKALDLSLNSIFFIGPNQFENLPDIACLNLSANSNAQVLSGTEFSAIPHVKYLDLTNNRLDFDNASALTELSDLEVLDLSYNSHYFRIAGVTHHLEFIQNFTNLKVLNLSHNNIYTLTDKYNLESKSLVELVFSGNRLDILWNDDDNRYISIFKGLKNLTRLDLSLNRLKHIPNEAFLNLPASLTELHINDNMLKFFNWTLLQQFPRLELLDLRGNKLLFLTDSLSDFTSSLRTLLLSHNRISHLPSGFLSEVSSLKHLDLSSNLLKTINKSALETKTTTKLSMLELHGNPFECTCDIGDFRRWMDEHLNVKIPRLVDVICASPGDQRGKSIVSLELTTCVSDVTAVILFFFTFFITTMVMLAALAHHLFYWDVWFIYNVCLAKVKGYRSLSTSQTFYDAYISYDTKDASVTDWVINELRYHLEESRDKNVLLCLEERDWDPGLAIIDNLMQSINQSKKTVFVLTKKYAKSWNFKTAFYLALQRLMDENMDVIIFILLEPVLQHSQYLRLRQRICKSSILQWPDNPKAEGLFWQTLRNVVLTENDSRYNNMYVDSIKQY
The assay can be described thus: TLR8 inhibition reporter assay (HEK-Blue cells, SEAP reporter, R848 stimulation). Particulars: HEK-Blue cells overexpressing human TLR8, SEAP reporter, R848 15.9 μM; read-out: TLR8 IC50. In short, it runs like this:
(§1)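 Compound treatment: 30 min, RT, 0.05 nM–50 μM final. Agonist: TLR7 gardiquimod 7.5 μM; TLR8 R848 15.9 μM; TLR9 ODN2006 5 nM. Incubation 22 h, 37 °C, 5% CO2. Readout SEAP, HEK-Blue Detection.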

The target of assay [2] is T2, human TLR9 (Homo sapiens, UniProt Q9NR96).
T2 construct: host or cells: HEK-Blue cells
T2 sequence (Q9NR96 26-1032): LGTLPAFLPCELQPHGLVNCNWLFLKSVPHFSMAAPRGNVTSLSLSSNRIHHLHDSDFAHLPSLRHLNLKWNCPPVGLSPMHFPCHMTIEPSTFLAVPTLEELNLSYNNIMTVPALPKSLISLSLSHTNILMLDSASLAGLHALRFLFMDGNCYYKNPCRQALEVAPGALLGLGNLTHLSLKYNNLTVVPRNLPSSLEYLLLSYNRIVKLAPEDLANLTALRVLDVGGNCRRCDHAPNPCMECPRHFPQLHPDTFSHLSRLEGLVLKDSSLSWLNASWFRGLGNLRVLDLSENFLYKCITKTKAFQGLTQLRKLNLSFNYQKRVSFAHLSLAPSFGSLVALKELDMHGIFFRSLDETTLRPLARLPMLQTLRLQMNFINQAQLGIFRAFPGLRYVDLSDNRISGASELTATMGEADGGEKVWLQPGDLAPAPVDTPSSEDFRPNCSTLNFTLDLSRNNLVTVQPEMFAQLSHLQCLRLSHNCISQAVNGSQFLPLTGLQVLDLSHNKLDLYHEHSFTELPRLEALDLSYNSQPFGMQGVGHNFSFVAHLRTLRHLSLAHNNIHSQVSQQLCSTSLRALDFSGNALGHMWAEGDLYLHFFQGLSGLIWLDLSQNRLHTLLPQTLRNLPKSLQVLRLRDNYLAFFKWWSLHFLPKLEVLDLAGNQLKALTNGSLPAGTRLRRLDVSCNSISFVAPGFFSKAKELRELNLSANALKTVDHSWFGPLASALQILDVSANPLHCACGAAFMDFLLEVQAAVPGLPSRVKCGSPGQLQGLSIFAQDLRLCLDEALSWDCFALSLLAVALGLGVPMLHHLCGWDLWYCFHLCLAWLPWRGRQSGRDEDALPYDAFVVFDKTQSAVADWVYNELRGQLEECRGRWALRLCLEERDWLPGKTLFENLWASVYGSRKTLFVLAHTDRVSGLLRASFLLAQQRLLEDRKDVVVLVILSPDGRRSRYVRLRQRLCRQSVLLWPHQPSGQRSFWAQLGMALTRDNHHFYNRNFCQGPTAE
The assay can be described thus: TLR9 inhibition reporter assay (HEK-Blue cells, SEAP reporter, ODN2006 stimulation). Particulars: HEK-Blue cells overexpressing human TLR9, SEAP reporter, ODN2006 5 nM. In short, it runs like this: as §1
Background: Reporter assays use an easily measured gene product as a stand-in for the process of interest.

For assay [3], the target named is T3, human TLR7 (Homo sapiens, UniProt Q9NYK1).
T3 construct: host or cells: HEK-Blue cells
T3 sequence (Q9NYK1 27-1049): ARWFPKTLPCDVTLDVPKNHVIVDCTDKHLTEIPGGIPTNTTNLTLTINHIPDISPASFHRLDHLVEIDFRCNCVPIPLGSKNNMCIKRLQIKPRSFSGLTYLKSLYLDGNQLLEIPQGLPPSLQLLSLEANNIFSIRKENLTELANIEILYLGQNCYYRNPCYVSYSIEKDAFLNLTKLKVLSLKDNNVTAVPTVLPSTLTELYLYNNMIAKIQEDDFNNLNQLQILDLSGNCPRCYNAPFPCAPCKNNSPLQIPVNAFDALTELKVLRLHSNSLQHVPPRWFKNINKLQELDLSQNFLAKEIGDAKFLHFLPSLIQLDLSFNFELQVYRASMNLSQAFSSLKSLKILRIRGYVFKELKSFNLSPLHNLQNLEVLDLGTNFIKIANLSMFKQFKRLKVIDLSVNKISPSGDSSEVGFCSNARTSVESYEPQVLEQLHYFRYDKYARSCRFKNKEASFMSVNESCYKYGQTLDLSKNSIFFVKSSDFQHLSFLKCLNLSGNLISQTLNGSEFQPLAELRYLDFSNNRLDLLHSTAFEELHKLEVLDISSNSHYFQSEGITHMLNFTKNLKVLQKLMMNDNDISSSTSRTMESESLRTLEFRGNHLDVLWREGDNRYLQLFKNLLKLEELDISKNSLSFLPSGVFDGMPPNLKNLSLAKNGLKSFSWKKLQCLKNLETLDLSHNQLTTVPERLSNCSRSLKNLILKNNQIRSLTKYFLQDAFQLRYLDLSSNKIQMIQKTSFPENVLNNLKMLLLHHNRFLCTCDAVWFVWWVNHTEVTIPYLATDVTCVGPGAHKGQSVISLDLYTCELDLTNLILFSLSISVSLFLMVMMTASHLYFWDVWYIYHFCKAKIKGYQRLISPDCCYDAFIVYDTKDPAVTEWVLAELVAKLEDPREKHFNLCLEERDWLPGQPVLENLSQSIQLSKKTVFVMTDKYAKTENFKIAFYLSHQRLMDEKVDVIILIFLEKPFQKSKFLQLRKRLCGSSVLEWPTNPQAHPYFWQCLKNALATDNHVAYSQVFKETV
The assay can be described thus: TLR7 inhibition reporter assay (HEK-Blue cells, SEAP reporter, gardiquimod stimulation). Particulars: HEK-Blue cells overexpressing human TLR7, SEAP reporter, gardiquimod 7.5 μM; read-out: TLR7 IC50. The essentials:
as §1

For `COc1cc(-c2[nH]c3sc(C4CCC(N5CC6(C5)CS(=O)(=O)C6)CC4)nc3c2C(C)C)cn2ncnc12` (stereo not drawn) [Example 97, 6-(4-(6-isopropyl-5-(8-methoxy-[1,2,4]triazolo[1,5-a]pyridin-6-yl)-4H-pyrrolo[3,2-d]thiazol-2-yl)cyclohexyl)-2-thia-6-azaspiro[3.3]heptane 2,2-dioxide], the IC50 turned out to be 0.0419 µM in assay [1], 5.49 µM in assay [2] and 0.00242 µM in assay [3].
As for `Cc1c(-c2[nH]c3sc(C4CCC(N5CCC5)CC4)nc3c2C(C)C)cn(C)c(=O)c1C` (single isomer, unassigned) [Example 256, 5-(2-(4-(azetidin-1-yl)cyclohexyl)-6-isopropyl-4H-pyrrolo[3,2-d]thiazol-5-yl)-1,3,4-trimethylpyridin-2(1H)-one], the IC50 worked out at 0.0313 µM in assay [1], 16.9 µM in assay [2] and 0.0343 µM in assay [3].
For the compound `CCN(C)CC(=O)N[C@H]1CC[C@H](c2nc3c(C(C)C)c(-c4cc(OC)c5ncnn5c4)[nH]c3s2)CC1` [Example 128, Trans 2-(ethyl(methyl)amino)-N-(4-(6-isopropyl-5-(8-methoxy-[1,2,4]triazolo[1,5-a]pyridin-6-yl)-4H-pyrrolo[3,2-d]thiazol-2-yl)cyclohexyl)acetamide], the IC50 in assay [1] was 0.00829 µM; in assay [2] it was 13.4 µM; in assay [3] it was 0.00121 µM.
Turning to `Cc1c(-c2[nH]c3sc(C4CCN(C)CC4)nc3c2C(C)C)cn2ncnc2c1C` [Example 49, 5-(7,8-dimethyl-[1,2,4]triazolo[1,5-a]pyridin-6-yl)-6-isopropyl-2-(1-methylpiperidin-4-yl)-4H-pyrrolo[3,2-d] thiazole], the IC50 in assay [1] amounted to 0.00048 µM; in assay [2], 9.22 µM; in assay [3], 0.00097 µM.
Take `Cc1cc(-c2[nH]c3sc(C4CCN(C5CCOCC5)CC4)nc3c2C(C)C)cc(C)n1` [Example 26, 5-(2,6-dimethylpyridin-4-yl)-6-isopropyl-2-(1-(tetrahydro-2H-pyran-4-yl)piperidin-4-yl)-4H-pyrrolo[3,2-d]thiazole]: the figures for the IC50 in assay [1], in assay [2] and in assay [3] were 0.413 µM, 7.21 µM and 0.442 µM, respectively.
The corresponding values for `Cc1cc(-c2[nH]c3sc(C(=O)NCCN(C)C)nc3c2C(C)C)cn2ncnc12` [Example 400, N-(2-(dimethylamino)ethyl)-6-isopropyl-5-(8-methyl-[1,2,4]triazolo[1,5-a]pyridin-6-yl)-4H-pyrrolo[3,2-d]thiazole-2-carboxamide] are 0.0159 µM, 9.25 µM and 0.0135 µM.
For the compound `Cc1c(-c2[nH]c3sc(C(=O)NCCN(C)C)nc3c2C(C)C)cn2ncnc2c1C` [Example 372, 5-(7,8-dimethyl-[1,2,4]triazolo[1,5-a]pyridin-6-yl)-N-(2-(dimethylamino)ethyl)-6-isopropyl-4H-pyrrolo[3,2-d]thiazole-2-carboxamide], the IC50 came out at 0.00249 µM in assay [1], 8.88 µM in assay [2] and 0.0107 µM in assay [3].
In the case of `Cc1cc(-c2[nH]c3sc(C4CCNCC4)nc3c2C(C)C)cc(C)n1` [Example 4, 5-(2,6-dimethylpyridin-4-yl)-6-isopropyl-2-(piperidin-4-yl)-4H-pyrrolo[3,2-d]thiazole], the results for the IC50 in assay [1], in assay [2] and in assay [3] were 0.0339 µM, 0.287 µM and 0.00552 µM, respectively.
Take `Cc1cc2ncnn2cc1-c1[nH]c2sc(C3CCC(NC4(C)COC4)CC3)nc2c1C(C)C` (single isomer, unassigned) [Example 144, N-(4-(6-isopropyl-5-(7-methyl-[1,2,4]triazolo[1,5-a]pyridin-6-yl)-4H-pyrrolo[3,2-d]thiazol-2-yl)cyclohexyl)-3-methyloxetan-3-amine]: the concentration for half-maximal inhibition (IC50) in assay [1] is 0.00356 µM; in assay [2], 15.2 µM; in assay [3], 0.00726 µM.
As for `Cc1c(-c2[nH]c3sc(C(=O)N4CCC(N(C)C)CC4)nc3c2C(C)C)cn2ncnc2c1C` [Example 376, (5-(7,8-dimethyl-[1,2,4]triazolo[1,5-a]pyridin-6-yl)-6-isopropyl-4H-pyrrolo[3,2-d]thiazol-2-yl)(4-(dimethylamino)piperidin-1-yl)methanone], the figures for the IC50 in assay [1], in assay [2] and in assay [3] were 0.0028 µM, 6.3 µM and 0.00454 µM, respectively.
For the compound `COc1cc(-c2[nH]c3sc(C4CCC(N)CC4)nc3c2C(C)C)cn2ncnc12` (single isomer, unassigned) [Example 92, 4-(6-isopropyl-5-(8-methoxy-[1,2,4]triazolo[1,5-a]pyridin-6-yl)-4H-pyrrolo[3,2-d]thiazol-2-yl)cyclohexan-1-amine], the IC50 is 0.00234 µM in assay [1], 4.11 µM in assay [2] and 0.00031 µM in assay [3].
